Measurements from patent publication US20220378046A1, “EFFECTS OF NF-kB SIGNALING INHIBITORS ON BED BUG RESISTANCE TO ORALLY PROVISIONED ENTOMOPATHOGENIC BACTERIA” (South Dakota Board of Regents, priority 2021, published 2022).
Like-named read-outs stand apart in the source and are kept apart here.

Legend:
Pseudomonas entomophila = test: Direct effects of NF-kB signaling inhibitors on growth of P. entomophila cultures (OD600); format: cell-based; conditions: 10 μg/mL; LB medium; shaken overnight at room temperature
Text: (§1) The effects of NF-kB signaling inhibitors were further assessed on growth of bacterial entomopathogen cultures. Two bacterial entomopathogens were used in the present example. The Gram-positive bacterium B. thuringiensis israelensis was obtained from Carolina Biological Supply (Burlington, N.C., USA). This bacterium was investigated due to its potential activity against bed bugs when ingested. The Gram-negative bacterium P. entomophila was obtained from the German Collection of Microorganisms and Cell Cultures (DSMZ, Braunschweig, Germany). Stocks of these bacteria were grown overnight in Luria-Bertani (LB) medium on a shaker at room temperature.
(§2) To determine if the inhibitors had any direct impact on the growth of entomopathogenic bacteria prior to their administration in vivo, cultures of each bacterium were inoculated into LB medium and individual inhibitors were added to the cultures at a final concentration of 10 μg/mL. Cultures containing equal volumes of DMSO diluent served as controls. After shaking overnight at room temperature, growth of bacteria in the presence of inhibitors was quantified by measuring optical density of the cultures at 600 nm (OD600) on a spectrophotomer. OD600 values of cultures containing inhibitors were then normalized to DMSO controls. Three replicates were conducted with each inhibitor and growth was compared to controls (set at 1) using a one-sample t-test.

Cimex lectularius [1] = test: Toxicity of NF-kB signaling inhibitors fed as lone agents to bed bugs (seven-day survivorship); format: in vivo; conditions: 5 μg/mL or 10 μg/mL in blood meal; 7 days; chi-square test p=0.54
Method: (§3) For the following non-limiting Examples, the Cincinnati SRL strain of Cimex lectularius was used for the population of bed bugs. This strain was derived from a population of individuals collected by technicians from Sierra Research Laboratories, Inc. (Modesto, Calif.) in 2007 and has been maintained under laboratory conditions since this time. Colonies were maintained at the University of South Dakota in plastic jars containing corrugated cardboard harborages at 28 +/−1° C. and 60-70% relative humidity on a 12:12 photoperiod. The colonies were fed aseptically collected defibrinated rabbit blood (Hemostat Laboratories, Dixon, Calif.) once per week using an artificial membrane system (Hemotek Ltd., Blackburn, United Kingdom).
The bed bugs were fed four individual small molecule inhibitors of NF-kB signaling (BMS345541, IKK16, IMD0354, Takinib) alone or in combination with two different bacterial entomopathogens (Pseudomonas entomophila and Bacillus thuringiensis israelensis). […] The effects on both bed bug mortality and bacterial growth were assessed.
The toxicity of NF-kB signaling inhibitors was analyzed by feeding the inhibitors as lone agents to bed bugs. In particular, the four individual small molecule inhibitors of NF-kB signaling (BMS345541, IKK16, IMD0354, Takinib) were analyzed. […] Mortality was then monitored regularly over a period of seven days. […]

Rhodnius prolixus = conditions: cited from earlier work
[2] = tested on: Bacillus thuringiensis israelensis; test: Direct effects of NF-kB signaling inhibitors on growth of B. thuringiensis israelensis cultures (OD600); format: cell-based; conditions: 10 μg/mL; LB medium; shaken overnight at room temperature
Text: as §1, §2

Cimex lectularius [3] = test: Three-day survivorship of bed bugs fed NF-kB signaling inhibitors combined with B. thuringiensis israelensis; format: in vivo; conditions: 10 μg/mL inhibitor in blood meal with bacteria; three days; Gehan-Breslow test p=0.86
Method: as §3
The effect of the combination treatment of NF-kB signaling inhibitors and bacterial entomopathogens on bed bug resistance to the bacterial entomopathogens was analyzed. To determine if NF-kB signaling inhibitors could reduce resistance to orally provisioned entomopathogenic bacteria, cultures of each bacterium were grown overnight by shaking at room temperature. […] The evaluated inhibitors or DMSO diluent were added to the blood meal containing diluted bacteria to a final concentration of 10 ug/mL. […] Short-term mortality was then monitored over a period of three days. […]

Cimex lectularius [4] = test: Three-day survivorship of bed bugs fed P. entomophila alone or combined with NF-kB signaling inhibitors; format: in vivo; conditions: for effect on mortality during P. entomophila infection: 10 μg/mL inhibitor in blood meal with P. entomophila, three days, relative to bacterium alone; for mortality at 10 µg/mL: Cimex lectularius, P. entomophila combined with 10 μg/mL inhibitor in blood meal
Method: as §3
The effect of the combination treatment of NF-kB signaling inhibitors and bacterial entomopathogens on bed bug resistance to the bacterial entomopathogens was analyzed. To determine if NF-kB signaling inhibitors could reduce resistance to orally provisioned entomopathogenic bacteria, cultures of each bacterium were grown overnight by shaking at room temperature. The following day, cultures of P. entomophila were standardized to an OD600 value of 2.3 (3×10^8 colony forming units/mL) and cultures of B. thuringiensis isralensis were standardized to an OD600 value of 2.2 (7×10^7 colony forming units/mL), based on their overnight growth across replicates. P. entomophila was then further diluted 1:100 in defibrinated rabbit blood, whereas B. thuringiensis israelensis was further diluted 1:50 in defibrinated rabbit blood due to its generally lower virulence. The evaluated inhibitors or DMSO diluent were added to the blood meal containing diluted bacteria to a final concentration of 10 ug/mL. The groups of bed bugs fed DMSO diluent in blood were included as controls. Groups of bed bugs consisting of roughly even numbers of adult male and female bed bugs that had not blood fed for at least seven days were provided access to treated blood meals using the artificial membrane system (Hemotek Ltd.) until fully engorged. Short-term mortality was then monitored over a period of three days. Three independent biological replicates with 10-14 insects per group were carried out and cumulative survival curves were compared using the Gehan-Breslow-Wilcoxon test.

Cimex lectularius [5] = test: Estimation of P. entomophila load in vivo in bed bugs (CFU/insect); conditions: 10 μg/mL inhibitor with P. entomophila in blood meal, 24 hours post-infection
Method: The bacterial load of entomopathogen was further analyzed to determine whether enhanced mortality during P. entomophila infection was associated with increased bacterial load (reduced resistance). For this analysis, adult male bed bugs that had not fed for at least seven days were provided access to blood meals containing P. entomophila with or without 10 μg/mL of IKK16 using the artificial membrane system (Hemotek Ltd.) until fully engorged. The two treatments were prepared as described in Example 3. After 24 hours, live and dead bed bugs from each infected treatment group were collected. Individual insects were surface sterilized by rinsing with 10% bleach and 70% ethanol and homogenized in sterile phosphate buffered saline (PBS). Homogenates were then serial diluted in PBS and plated on LB agar plates to estimate the load of P. entomophila bacteria expressed as colony forming units (CFU) per insect after 24 hours of incubation at 28° C. Because culturable bed bug commensals in the gut are minimal and slow growing, this methodology allows for the specific quantification of P. entomophila. Two independent biological replicates were conducted (15 individual insects examined per treatment group in total). The insects in each treatment were further subdivided into dead and live categories for analysis. […]

Row | SMILES | growth of P. entomophila relative to DMSO control (OD600) (Pseudomonas entomophila) | direct toxicity to bed bugs (mortality relative to DMSO controls) (Cimex lectularius [1]) | expression of antimicrobial peptides (Rhodnius prolixus) | mortality during both bacterial and parasitic infections (Rhodnius prolixus) | growth of B. thuringiensis israelensis relative to DMSO control (OD600) [2] | effect on mortality during infection with B. thuringiensis (Cimex lectularius [3]) | effect on mortality during P. entomophila infection (Cimex lectularius [4]) | mortality at 10 µg/mL (Cimex lectularius [4]; 24 h, read-out: mortality at day 1) [%] | mortality at 10 µg/mL (Cimex lectularius [4]; 48 h, read-out: mortality at day 2) [%] | mortality at 10 µg/mL (Cimex lectularius [4]; 72 h, read-out: mortality at day 3) [%] | effect on tolerance (mortality with lower bacterial loads) in vivo (Cimex lectularius [5]) | P. entomophila load in live bed bugs versus live counterparts not treated with the inhibitor (Cimex lectularius [5]; ANOVA p=0.021)
1 | O=C(Nc1cc(C(F)(F)F)cc(C(F)(F)F)c1)c1cc(Cl)ccc1O [IMD0354, N-(3,5-bis(trifluoromethyl)phenyl)-5-chloro-2-hydroxybenzamide] | inhibited the growth | not directly toxic | suppressed expression | increased mortality | inhibited the growth | – | – | – | – | – | – | –
2 | Cc1ccc2nc(NCCN)c3ncc(C)n3c2c1 [BMS345541, N1-(1,8-dimethylimidazo[1,2-a]quinoxalin-4-yl)ethane-1,2-diamine] | did not affect the growth | – | – | – | did not affect the growth | little to no effect | little to no effect | – | – | – | – | –
3 | O=C(c1ccc(Nc2nccc(-c3cc4ccccc4s3)n2)cc1)N1CCC(N2CCCC2)CC1 [IKK16, (4-((4-(Benzo[b]thiophen-2-yl)pyrimidin-2-yl)amino)phenyl)(4-(pyrrolidin-1-yl)piperidin-1-yl)methanone] | did not affect the growth | – | – | – | inhibited the growth | – | significantly increased | 74.3 | 80 | 82.9 | did not affect tolerance | higher loads
4 | CCCn1/c(=N/C(=O)c2cccc(C(N)=O)c2)[nH]c2ccccc21 [Takinib, 3-N-(1-propylbenzimidazol-2-yl)benzene-1,3-dicarboxamide] | did not affect the growth | – | – | – | did not affect the growth | little to no effect | little to no effect | – | – | – | – | –
